Measured values from patent US7601736B2, “Pyridine derivatives, a process for their preparation and a pharmaceutical composition containing the same” (SK Chemicals Co., Ltd., priority 2003, dated 2009).

Key:
TNF-α [1] = test: Cytokine inhibitory activity in human whole blood (LPS), TNF-α ELISA; format: cell-based; details: LPS 1 μg/mL, read-out: TNF-α Inhibition rate (conc.); for inhibition at 0.1 µg/mL: test conc. 100 ng/mL
Method: (§1) 20 mL of venous whole blood collected respectively from 5 healthy volunteers of men or women, who had never been medicated with anti-inflammatory drugs within the last two weeks, and was added with heparin. 1 mL each of the above blood was respectively collected, and transferred into test tubes in which it was mixed with test material. The above mixture was precultured at 37° C. for about 1 hour. Then it was added with 1 μg/mL of LPS (lipopolysaccharide), allowed to react at the same temperature for about 4 to about 12 hours and then centrifuged at 4° C. at the rate of 3000 rpm for about 10 minutes. Thus produced plasma was respectively collected and its TNF-α in each plasma was quantitated using human TNF-α ELISA kit based on the amount of recombinant TNF-α in humans. The plate used was coated with anti-human TNF-α monoclone IgG antibodies. Likewise, for the test of IL-1α, IL-1α in each plasma was quantitated using the above plasma and human IL-1α ELISA kit based on the amount of recombinant IL-1α in humans. The plate used was coated with anti-human IL-1α monoclone IgG antibodies. Further, for the test of PGE2, PGE2 in each plasma was quantitated using the above plasma and PGE2 ELISA kit based on the amount of recombinant PGE2 in humans. The plate used was coated with anti-human PGE2 monoclone IgG antibodies. From the above tests, inhibitory rates on the expression of each cytokine were obtained and they were compared to that of Indomethacin.

IL-6 = test: Cytokine inhibitory activity in animal model (LPS-treated SD rats), plasma IL-6; format: in vivo, Sprague Dawley (SD) rats; details: oral
Method: (§2) Sprague Dawley (SD) rats with body weights of about 180 to about 200 g were fasted (free drinking) and then tested. […] After 2 hours, the rats were sacrificed and bloods were collected from abdominal vein, stored at room temperature for about 2 hours, and then centrifuged at 12,000 rpm for about 2 minutes. Thus produced plasma was respectively collected and its TNF-α in each plasma was quantitated using mouse TNF-α ELISA kit based on the amount of recombinant TNF-α in rats. The plate used was coated with anti-rat TNF-α monoclone IgG antibodies. Likewise, for the test of IL-1α, IL-1α in each plasma was quantitated using the above plasma and mouse IL-1α ELISA kit based on the amount of recombinant IL-1α in rats. The plate used was coated with anti-rat IL-1α monoclone IgG antibodies. Further, for the test of IL-6, IL-6 in each plasma was quantitated using the above plasma and mouse IL-6 ELISA kit based on the amount of recombinant IL-6 in rats. Further, for the test of INF-γ, INF-γ in each plasma was quantitated using the above plasma and mouse INF-γ ELISA kit based on the amount of recombinant INF-γ in rats. The plate used was coated with anti-rat INF-γ monoclone IgG antibodies. From the above tests, inhibitory rates on the expression of each cytokine were obtained and they were compared to that of Indomethacin.

PGE2 = test: Cytokine inhibitory activity in human whole blood (LPS), PGE2 ELISA; format: cell-based; details: LPS 1 μg/mL, read-out: PGE2 Inhibition rate (conc.); for inhibition at 300 µg/mL: test conc. 300 μg/mL
Method: as §1

IL-1α [2] = test: Cytokine inhibitory activity in animal model (LPS-treated SD rats), plasma IL-1α; format: in vivo, Sprague Dawley (SD) rats; details: oral
Method: as §2

INF-γ = test: Cytokine inhibitory activity in animal model (LPS-treated SD rats), plasma INF-γ; format: in vivo, Sprague Dawley (SD) rats; details: oral
Method: as §2

IL-1α [3] = test: Cytokine inhibitory activity in human whole blood (LPS), IL-1α ELISA; format: cell-based; details: LPS 1 μg/mL, read-out: IL-1α Inhibition rate (conc.); for inhibition at 0.1 µg/mL: test conc. 100 ng/mL
Method: as §1

TNF-α [4] = test: Cytokine inhibitory activity in animal model (LPS-treated SD rats), plasma TNF-α; format: in vivo, Sprague Dawley (SD) rats; details: Rattus norvegicus, 2 h, oral, read-out: TNF-α Inhibition Rate (Conc.)
[5] = tested on: ICR (Institute of Cancer Research) mouse; test: Arachidonic acid-induced ear edema test; format: in vivo; details: oral
Method: (§3) Male ICR (Institute of Cancer Research) mouse with body weight of about 20 to 30 g were tested wherein each group had 6 mouses. After 1 hour of the oral administration of a test compound, Arachidonic acid (in acetone solution) was coated on one of the ears. After 1 hour, the thickness of the swollen ear in treated group was compared with the other unswollen ear and obtained the average increase rate in thickness of ear by the treatment.

[6] = tested on: ICR (Institute of Cancer Research) mouse; test: Croton oil-induced ear edema test; format: in vivo; details: oral
Method: as §3, with “Croton oil” for “Arachidonic acid”, “4 hours,” for “1 hour,”

[7] = tested on: ICR (Institute of Cancer Research) mouse; test: Analgesic test (acetic acid-induced stretchings); format: in vivo; details: oral
Method: Male ICR (Institute of Cancer Research) mouse with body weight of about 20 to 30 g were tested wherein each group had 6 mouses. After 1 hour of the oral administration of a test compound, acetic acid (in distilled water) was abdominally administered. For the duration of 10 minutes, the animals were observed regarding the number of stretchings and the number was compared with that of placebo treated group and the result is shown in the following table 7.

TNF-α [8] = test: Cytokine inhibitory activity in cells: LPS-induced TNF-α in RAW 264.7; format: cell-based, murine; details: Mus musculus, RAW264.7, RAW 264.7, LPS 1 μg/mL, read-out: TNF-α Inhibition Rate (%); for inhibition at 1 µM: test conc. 1 μM; for inhibition at 10 µM: test conc. 10 μM; for inhibition at 100 µM: test conc. 100 μM; for inhibition at 1000 µM: test conc. 1 mM
Method: General reagents used were purchased from Sigma-Aldrich chem. Co. and cytokine inhibitory activities were tested as follows. Mediums and reagents used in cell culture were purchased from GIBCO BRL (USA), and mouse TNF-α ELISA kit was purchased from R&D system (USA). The apparatus used ELISA reader (Spectra max-Plus 384, Molecular Device, USA).
Murine macrophage cell line RAW 264.7 was kindly provided by Korean Tissue Culture Center (KTCC). The cell line was cultured in DMEM medium containing 10% FBS, in a cell culturing device at the condition of 37° C., 5% CO2. First, murine RAW 264.7 was cultured in DMEM medium containing 10% FBS for about 24 hours, and cells were planted 200 μL each in 96 well plates at the concentration of 5×10^5/mL and cultured for about 24 hours. Then, test compounds were treated at various concentrations and then reacted at 37° C. for about 1 hour, wherein 1 μg/mL of lipopolysaccharide (LPS) was added thereto and reacted at 37° C. for about 12 hours. The supernatant was recovered and the amount of murine TNF-α on the medium was quantitated using ELISA kit. Thalidomide was respectively used as a positive and a negative control to compare the activities and the results are shown in the following tables 4a -4c.

TNF-α [9] = test: Cytokine inhibitory activity in animal model (LPS-treated SD rats), plasma TNF-α; format: in vivo, Sprague Dawley (SD) rats; details: Rattus norvegicus, 2 h; SD rats, oral, LPS; 40 mg/kg; read-out: TNF-α Inhibition Rate (Conc.)
Method: Sprague Dawley (SD) rats with body weights of about 180 to about 200 g were fasted (free drinking) and then tested. Test compounds were administered orally at 40 mg/kg and then abdominally administered with LPS 1 μg/mL after 1 hour. After 2 hours, the rats were sacrificed and bloods were collected from abdominal vein, stored at room temperature for about 2 hours, and then centrifuged at 12,000 rpm for about 2 minutes. Thus produced plasma was respectively collected and its TNF-α in each plasma was quantitated using mouse TNF-α ELISA kit based on the amount of recombinant TNF-α in rats. The plate used was coated with anti-rat TNF-α monoclone IgG antibodies. Likewise, for the test of IL-1α, IL-1α in each plasma was quantitated using the above plasma and mouse IL-1α ELISA kit based on the amount of recombinant IL-1α in rats. The plate used was coated with anti-rat IL-1α monoclone IgG antibodies. Further, for the test of IL-6, IL-6 in each plasma was quantitated using the above plasma and mouse IL-6 ELISA kit based on the amount of recombinant IL-6 in rats. Further, for the test of INF-γ, INF-γ in each plasma was quantitated using the above plasma and mouse INF-γ ELISA kit based on the amount of recombinant INF-γ in rats. The plate used was coated with anti-rat INF-γ monoclone IgG antibodies. From the above tests, inhibitory rates on the expression of each cytokine were obtained and they were compared to that of Indomethacin.

Compound	Inhibition Rate (%) ([5]; 2 mg/kg)	Inhibition Rate (%) ([5]; 10 mg/kg)	Inhibition Rate (%) ([5]; 50 mg/kg)	inhibition at 0.1 µg/mL (TNF-α [1])	Inhibition Rate (%) ([6]; 2 mg/kg)	Inhibition Rate (%) ([6]; 10 mg/kg)	Inhibition Rate (%) ([6]; 50 mg/kg)	IL-6 Inhibition rate (conc.) (IL-6; 40 mg/kg)	inhibition at 300 µg/mL (PGE2)	Inhibition Rate (%) ([7]; 10 mg/kg)	Inhibition Rate (%) ([7]; 50 mg/kg)	IL-α Inhibition rate (conc.) (IL-1α [2]; 40 mg/kg)	INF-γ Inhibition rate (conc.) (INF-γ; 40 mg/kg)	inhibition at 1 µM (TNF-α [8])	inhibition at 10 µM (TNF-α [8])	inhibition at 100 µM (TNF-α [8])	inhibition at 1000 µM (TNF-α [8])	inhibition at 0.1 µg/mL (IL-1α [3])	inhibition in vivo at 40 mg/kg (TNF-α [9])	also measured
COc1ccc2c(c1)c(CC(=O)O)c(C)n2C(=O)c1ccc(Cl)cc1 [Indomethacin, reference compound]																				inhibition at 200 µg/mL (TNF-α [1]; test conc. 200 μg/mL): 37%; IL-6 Inhibition rate (conc.) (IL-6; 200 mg/kg): 60% (200 mg/kg); inhibition at 200 µg/mL (PGE2; test conc. 200 μg/mL): 37%; IL-α Inhibition rate (conc.) (IL-1α [2]; 200 mg/kg): 24% (200 mg/kg); INF-γ Inhibition rate (conc.) (INF-γ; 200 mg/kg): 13% (200 mg/kg); inhibition at 200 µg/mL (IL-1α [3]; test conc. 200 μg/mL): 25%; inhibition in vivo at 200 mg/kg (TNF-α [4]): 46%
Cc1cc2c(cn1)C(=O)OCC2 [Ex. 6, 6-methyl-3,4-dihydro-pyrano[3,4-c]pyridine-1-on]	21%	36%	41%	84%	17%	39%	69%	78% (40 mg/kg)	23%	76%	75%	52% (40 mg/kg)	51% (40 mg/kg)	30%	35%	36%	38%	90%	39%	
Cc1ccc(-c2cc(C(F)(F)F)nn2-c2ccc(S(N)(=O)=O)cc2)cc1 [Celecoxib, reference compound]																				Inhibition Rate (%) ([5]; 100 mg/kg): 33%; Inhibition Rate (%) ([6]; 100 mg/kg): 35%; Inhibition Rate (%) ([7]; 100 mg/kg): 81%
C=Cc1cncc2c1CCOC2=O [Ex. 9, 5-vinyl-3,4-dihydro-pyrano[3,4-c]pyridine-1-on]	21%	29%	39%	82%	25%	44%	37%	43% (40 mg/kg)	38%	73%	76%	62% (40 mg/kg)	45% (40 mg/kg)	37%	38%	39%	41%	93%	59%	
O=C1OCCc2ccncc21 [Ex. 3, 3,4-dihydro-pyrano[3,4-c]pyridine-1-on]	33%	51%	46%	90%	33%	56%	57%	71% (40 mg/kg)	24%	76%	92%	65% (40 mg/kg)	48% (40 mg/kg)	34%	35%	43%	44%	95%	75%	
